Results taken from patent US10221171B2, “Oxathiazole thiazolium Hsp 70 inhibitors” (THE REGENTS OF THE UNIVERSITY OF CALIFORNIA, priority 2015, dated 2019).
Where two headings read alike, the source gives them in different places.

Columns and labels:
Microsomal stability = type: in vitro ADME
Solubility = type: physicochemical
MCF-7 = experiment: MTT cell viability assay, MCF-7; type: cell-based; conditions: for EC50: Table 2; for IC50: read-out: IC50/μM MCF-7
[1] = test system: Hsp70 clients in MCF7 cells; experiment: Western blot of Hsp70 clients in MCF7 cells; type: cell-based; conditions: 24 hrs
Description: Cells were treated for 24 hrs with compound, lysed and Western blots performed.

[2] = Tolerability in mice based on weight; type: in vivo; conditions: daily i.p. 5 mg/kg/day, male CD1 mice
Description: Analogs were delivered daily to male CD1 mice by i.p. at 5 mg/kg/day. Five mice per group. Error bars represent SEM.

[3] = Pharmacokinetics in CD1 mice, single i.p. injection, plasma by HPLC; type: in vivo
Description: A single injection of compound was delivered to CD1 mice by i.p. and the plasma collected at the indicated times. Compound levels were calculated by HPLC, using a standard curve.

MDA-MB-231 = experiment: MTT cell viability assay, MDA-MB-231; type: cell-based; conditions: Homo sapiens
IMR-90 = experiment: Cell viability, IMR-90; type: cell-based; conditions: for EC50: Homo sapiens, IMR-90, Table 2; for SI IMR-90/MCF-7: ratio of EC50 IMR-90 to EC50 MCF-7
Description: Cells were then treated with compound at various concentrations in 0.2 mL media. After the 72-hour incubation period, cells were washed in PBS (3×100 μL), and 10 μL MTT reagent was added with 100 μL fresh media. Cells were then incubated for 4 hr in a humidified chamber at 37° C. with 5% CO2. Insoluble formazan crystals were solubilized by addition of 0.1 mL detergent solution (4 hr at room temp., dark). Resulting colored solutions were then quantified at an absorbance of 570 nm.

MEF (C57BL/6) = experiment: MTT cell viability assay, MEF (C57BL/6); type: cell-based; conditions: for IC50 / EC50: Mus musculus; for EC50: Table 2; for SI MEF/MCF-7: ratio of EC50 MEF to EC50 MCF-7
Xenografts of MCF7 cells = experiment: Hsp70 client destabilization in MCF7 xenografts, western blot; type: in vivo; conditions: 5 mg/kg/day for three days, western blot of tumors
Description: Xenografts of MCF7 cells were treated by delivery of compound in saline 5 mg/kg/day dosed for three days, after which tumors were harvested for western blot. Results from three separate animals are shown.

[4] = test system: multiple myeloma cell lines; experiment: MTT cell viability in multiple myeloma cell lines; type: cell-based; conditions: cell viability after 48 hrs, percentage of solvent control (1% DMSO)
Description: Results are shown as a percentage of a solvent control (1% DMSO). Results are the average of experiments performed in triplicate. Error bars represent SEM.

[5] = 72 h, read-out: IC50/μM MEF (C57BL/6), MTT, 72-hour incubation
[6] = Homo sapiens, MCF7, 72 h, MTT, 72-hour incubation
[7] = MTT, 72-hour incubation, read-out: IC50/μM MEF (C57BL/6)
[8] = Homo sapiens, MCF7, MTT, 72-hour incubation

IC50 (MDA-MB-231; MDA-MB-231, 72-hour incubation) | IC50 (MCF-7; [8]) | Structure (SMILES) | Microsomal min (Microsomal stability) | EC50 (IMR-90) | EC50 (MEF (C57BL/6)) | EC50 (MCF-7; Homo sapiens, MCF7) | IC50 (MEF (C57BL/6); [7]) | further results
– | – | CCn1c(=O)/c(=C2\Sc3cc(Cl)ccc3N2C)s/c1=C\c1scc[n+]1Cc1ccccc1.[Cl-] [JG-98, reference compound] | 37 min | – | – | – | – | solubility (Solubility): 31 µM; EC50 (MCF-7): 0.71 ± 0.22 µM
– | – | CCn1c(=O)/c(=C2\Sc3cc(Cl)ccc3N2C)s/c1=C\c1scc[n+]1Cc1ccc(Br)s1.[Cl-] [JG-231, reference compound] | >60 min | – | – | – | – | destabilization of Hsp70 clients (c-Raf and other clients) [1]: destabilize c-Raf and other clients; tolerated in mice, based on weight [2]: tolerated in mice; solubility (Solubility): 16 µM; EC50 (MCF-7): 0.12 ± 0.01 µM
0.14 ± 0.01 µM | 0.098 ± 0.009 µM | CCn1c(=O)/c(=C2\Sc3cc(SC)ccc3N2C)s/c1=C\c1scc[n+]1Cc1ccccc1OC(F)(F)F.[Cl-] [JG-311] | 22 min | 3.5 ± 0.6 µM | 2 ± 0.1 µM | 0.098 ± 0.009 µM | 2 ± 0.1 µM | SI IMR-90/MCF-7 (IMR-90): 35; solubility (Solubility): 16 µM; SI MEF/MCF-7 (MEF (C57BL/6)): 20
0.14 ± 0.01 µM | 0.1 ± 0.01 µM | CCn1c(=O)/c(=C2\Sc3cc(SC)ccc3N2C)s/c1=C\c1scc[n+]1Cc1ccccc1C(F)(F)F.[Cl-] [JG-312] | 23 min | > 10 µM | 3.2 ± 0.2 µM | 0.1 ± 0.01 µM | 3.2 ± 0.2 µM | SI IMR-90/MCF-7 (IMR-90): >100; solubility (Solubility): 16 µM; SI MEF/MCF-7 (MEF (C57BL/6)): 32
0.09 ± 0.005 µM | 0.089 ± 0.006 µM | CCn1c(=O)/c(=C2\Sc3cc(SC)ccc3N2C)s/c1=C\c1scc[n+]1Cc1ccccc1SC(F)(F)F.[Cl-] [JG-356] | 23 min | 1.5 ± 0.1 µM | 1.9 ± 0.1 µM | 0.089 ± 0.006 µM | 1.9 ± 0.1 µM | SI IMR-90/MCF-7 (IMR-90): 16; solubility (Solubility): 16 µM; SI MEF/MCF-7 (MEF (C57BL/6)): 21
0.2 ± 0.03 µM | 1.7 ± 0.3 µM | CCn1c(=O)/c(=C2\Sc3cc(OC)ccc3N2C)s/c1=C\c1scc[n+]1CCc1ccc(Cl)cc1 [JG-396] | – | – | – | – | 4 ± 0.2 µM | –
0.083 ± 0.007 µM | 0.08 ± 0.008 µM | CCn1c(=O)/c(=C2\Sc3cc(OC)ccc3N2C)s/c1=C\c1scc[n+]1CCc1ccccc1OC [JG-397] | – | – | – | – | 1.3 ± 0.1 µM | –
0.14 ± 0.01 µM | 0.24 ± 0.02 µM | CCn1c(=O)/c(=C2\Sc3cc(OC)ccc3N2C)s/c1=C\c1scc[n+]1CCc1ccccc1C [JG-398] | – | – | – | – | 1.1 ± 0.1 µM | –
0.11 ± 0.01 µM | 0.2 ± 0.01 µM | CCn1c(=O)/c(=C2\Sc3ccc(OC)cc3N2C)s/c1=C\c1scc[n+]1Cc1ccccc1SC(F)(F)F [JG-399] | – | – | – | – | 3.1 ± 0.2 µM | –
– | – | CCn1c(=O)/c(=C2\Sc3ccc(OC)cc3N2C)s/c1=C\c1scc[n+]1Cc1ccccc1OC(F)(F)F [JG-400] | – | – | – | – | – | IC50 (MDA-MB-231; MDA-MB-231, 72 h, 72-hour incubation): 0.16 ± 0.01 µM; IC50 (MEF (C57BL/6); [5]): 2.2 ± 0.1 µM; IC50 (MCF-7; [6]): 0.16 ± 0.02 µM
0.11 ± 0.01 µM | 0.45 ± 0.04 µM | CCn1c(=O)/c(=C2\Sc3ccc(OC)cc3N2C)s/c1=C\c1scc[n+]1Cc1ccccc1C(F)(F)F [JG-401] | – | – | – | – | 0.27 ± 0.03 µM | –
0.23 ± 0.01 µM | 0.45 ± 0.04 µM | CCn1c(=O)/c(=C2\Sc3ccc(OC)cc3N2C)s/c1=C\c1scc[n+]1Cc1ccsc1C(=O)OC [JG-402] | – | – | – | – | 0.82 ± 0.06 µM | –
0.2 ± 0.01 µM | 0.7 ± 0.08 µM | CCn1c(=O)/c(=C2\Sc3ccc(OC)cc3N2C)s/c1=C\c1scc[n+]1Cc1c(Cl)cccc1Cl [JG-403] | – | – | – | – | 1.2 ± 0.1 µM | –
0.3 ± 0.03 µM | 0.79 ± 0.1 µM | CCn1c(=O)/c(=C2\Sc3ccc(OC)cc3N2C)s/c1=C\c1scc[n+]1Cc1ccccc1OC [JG-404] | – | – | – | – | 1.3 ± 0.1 µM | –

Structure (SMILES) | IC50 (MDA-MB-231; MDA-MB-231, 72-hour incubation) | IC50 (MCF-7; [8]) | Microsomal min (Microsomal stability) | EC50 (IMR-90) | EC50 (MEF (C57BL/6)) | EC50 (MCF-7; Homo sapiens, MCF7) | IC50 (MEF (C57BL/6); [7]) | further results
CCn1c(=O)/c(=C2\Sc3cc(Br)ccc3N2C)s/c1=C\c1scc[n+]1Cc1ccc(C(F)(F)F)o1.[Cl-] [JG-294] | 0.18 ± 0.01 µM | – | >60 min | 9.8 ± 2 µM | 3.5 ± 0.4 µM | 0.1 ± 0.01 µM | – | AUC0-∞/nM × h [3]: 2.429 µM·h; Tmax ([3]; mouse, ip): 2 h; half-life ([3]; mouse, ip, read-out: t1/2/h (converted)): 29.8 h; tolerated in mice, based on weight [2]: tolerated in mice; IC50 (MEF (C57BL/6); [5]): 3.5 ± 0.4 µM; IC50 (MCF-7; Homo sapiens, MCF7, 72 h): 0.1 ± 0.01 µM
CCc1ccc2c(c1)S/C(=c1/s/c(=C\c3scc[n+]3Cc3ccc(C(F)(F)F)o3)n(CC)c1=O)N2C.[Cl-] [JG-300] | 0.1 ± 0.01 µM | – | 37 min | 3.3 ± 0.3 µM | 1.4 ± 0.1 µM | 0.11 ± 0.01 µM | – | IC50 (MEF (C57BL/6); [5]): 1.4 ± 0.06 µM; IC50 (MCF-7; [6]): 0.11 ± 0.01 µM
CCc1ccc2c(c1)S/C(=c1/s/c(=C\c3scc[n+]3Cc3ccccc3C(=O)OC)n(CC)c1=O)N2C.[Cl-] [JG-345] | 0.046 ± 0.006 µM | – | 25 min | 3.2 ± 0.7 µM | 1 ± 0.1 µM | 0.049 ± 0.003 µM | 1 ± 0.1 µM | t1/2/h [3]: 11.4 h; destabilization of Hsp70 clients (c-Raf and other clients) [1]: destabilize c-Raf and other clients; tolerated in mice, based on weight [2]: tolerated in mice; destabilization of Hsp70 clients in vivo (Xenografts of MCF7 cells): destabilized Hsp70 clients in vivo; anti-proliferative activity against multiple myeloma cell lines [4]: anti-proliferative activity; IC50 (MCF-7; Homo sapiens, MCF7, 72 h): 0.049 ± 0.003 µM
